The results in this text go back to ChEMBL document CHEMBL3632551, “Kynurenine Monooxygenase (KMO) Inhibitors for the Treatment of Acute Pancreatitis and Neurodegenerative Disorders” (ACS Med Chem Lett, 2015).

Where only a bound is given, the exact number is not on record here.

The assay has as its target Kynurenine 3-monooxygenase (Homo sapiens, UniProt O15229). Description: Inhibition of kynurenine monooxygenase (unknown origin) by MS rapidfire assay.

Kynurenine 3-monooxygenase, sequence (O15229 whole entry): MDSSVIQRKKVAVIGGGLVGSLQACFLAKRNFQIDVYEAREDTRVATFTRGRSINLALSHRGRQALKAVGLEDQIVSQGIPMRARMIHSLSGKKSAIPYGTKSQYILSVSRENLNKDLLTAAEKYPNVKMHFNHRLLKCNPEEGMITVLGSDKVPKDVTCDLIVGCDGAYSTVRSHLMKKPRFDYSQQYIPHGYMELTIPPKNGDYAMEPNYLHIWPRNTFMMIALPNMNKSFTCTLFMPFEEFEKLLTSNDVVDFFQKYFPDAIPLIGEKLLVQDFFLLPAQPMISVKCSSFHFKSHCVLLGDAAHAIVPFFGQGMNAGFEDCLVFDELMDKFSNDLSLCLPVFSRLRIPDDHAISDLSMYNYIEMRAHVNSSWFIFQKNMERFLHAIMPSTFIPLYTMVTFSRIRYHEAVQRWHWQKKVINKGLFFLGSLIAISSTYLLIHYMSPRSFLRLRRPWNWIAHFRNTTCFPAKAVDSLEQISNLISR

Turning to `Cn1ccnc1COc1cc2oc(=O)n(CCC(=O)O)c2cc1Cl`, the IC50 is less than 794 nM.
To `C[C@@H](Oc1cc2oc(=O)n(CCC(=O)O)c2cc1Cl)c1cccnn1` belongs less than 794 nM.

Usually IC50 stands for the point on the concentration scale where inhibition reaches its midpoint. A high value points to lower potency.
